Test results: patent US7687546B2, “Quaternary ammonium compound, process for producing the same, therapeutic agent for cerebrovascular disorder, and therapeutic agent for heart disease” (Activus Pharma Co., Ltd., priority 2004, dated 2010)
Where two headings read alike, the source gives them in different places.

Legend:
[1] = system: middle cerebral artery occlusion and reperfusion model; test: Cerebral infarction model: middle cerebral artery occlusion and reperfusion (infarct area, neurological symptoms, motor function); format: in vivo, rats (Crj: Wistar strain); design: Improvement of neurological symptoms* (total score): scale not given here; conditions: rats, average of 10 animals; for Improvement of neurological symptoms* (total score) / Improvement of motor function (time stayed on rotor rod: seconds): single i.v. dose 3 mg/kg; for Improvement of neurological symptoms* (total score): 24 hours after occlusion, total score per Table 4, smaller = greater effect; for Improvement of motor function (time stayed on rotor rod: seconds): rotor rod 14 rotations per minute, maximum 1 minute; for Cerebral infarction reduction rate (%): single intravenous dose 3 mg/kg immediately before reperfusion, vs physiological saline group, bigger = greater effect
Procedure: In this example, a cerebral infarction model was prepared using rats in which reperfusion injury was induced by ischemia and then reperfusion of the middle cerebral artery using the obturator method. The efficacy of compounds of the present invention following single-dose intravenous administration at dose of 3 mg/kg was evaluated in terms of infarct area, neurological symptoms and motor function.
In addition, Edaravone (trade name, Mitsubishi Pharma Corporation) was used as a reference compound. The compounds of the present invention were stored in a refrigerator under protection from light, while Edaravone (trade name) was stored at room temperature under protection from light.
Compounds of present invention: 2 mL of physiological saline was added directly to tube containing 3 mg aliquots of a compound of the present invention to dissolve and prepare solutions having a concentration of 3 mg/2 mL. These samples were prepared at the time of use.
Edaravone: Since Edaravone is an injectable solution having a concentration of 30 mg/20 mL, the required amounts were divided up and used.
Rats: Crj: Wistar strain, males, age 7 weeks (Charles River Laboratories Japan, Inc.)
The test compounds were administered in a single dose into the tail vein using a 1 mL syringe and 27 G injection needle immediately before the reperfusion.
The rats were anesthetized by intraperitoneal administration of sodium pentobarbital at dose of 40 mg/kg (Nembutal (trade name), Dainippon Pharmaceutical Co., Ltd.), and a middle cerebral artery occlusion and reperfusion model was prepared in accordance with the method of Koizumi et al. (Non-Patent Document 2). Namely, the animals were warmed to 37° C. and held in the dorsal position while breathing spontaneously. A midline cervical incision was made, and then the right external carotid artery and right internal carotid artery were separated without damaging the vagus nerve. The right common carotid artery and right external carotid artery were ligated, and a suture was attached to the origin of the internal carotid artery in preparation for ligation and maintenance of occlusion following insertion of an obturator into the internal carotid artery. Moreover, a small incision was made in the right common carotid artery, an obturator provided with an approximately 17 mm silicon-coated suture was inserted into the internal carotid artery, and the internal carotid artery was ligated. Two hours after ligation, the obturator was removed under unanesthesia to reperfuse. Furthermore, flexion of the contralateral forelimb was confirmed 30 minutes after occlusion of the middle cerebral artery.
The following neurological symptoms were evaluated 24 hours after occlusion of the middle cerebral artery according to the evaluation method of Petullo et al. (Non-Patent Document 3). Neurological symptoms consisted of flexion of the forelimbs, torso twisting, resistance when pushing on the back of the right or left shoulder (Lateral push), circling, return of the hindlimb to the floor when lifted from the floor (Hindlimb placement), behavior when the head is faced downward on an angle (Inverted angle board) and a locomotor activity test.
Flexion of the forelimbs: flexion of the forelimbs was observed when the animals were lifted up by the tail.
Torso twisting: Torso twisting was observed when the animals were lifted up by the tail.
Lateral push: Resistance was observed when pushing on the back of the right or left shoulder.
Hindlimb placement: The animals were observed as to whether or not the hindlimb immediately returns to the floor after being lifted from the floor when placed on a horizontal floor.
locomotor activity: locomotor activity was observed when the animals were placed in a polycarbonate cage.
The aforementioned tests were scored based on the criteria described in the following documents, followed by calculation of total scores (see Table 4 “Neurological Symptom Evaluation Criteria and Scores”). […]

[2] = system: ouabain-induced arrhythmia model; test: Ouabain-induced arrhythmia model in guinea pigs; format: in vivo, guinea pigs (Hartley strain); conditions: dose 3 mg/kg i.v. immediately before ouabain infusion 3 μg/0.1 ml/min
Description: After guinea pigs (Hartley strain, age 6 weeks) were anesthetized with urethane, induction electrodes were attached to the hind limbs and fore limbs, and standard 2-lead electrocardiograms were monitored with an animal electrocardiogram analysis system (ECG-01, Japan Energy). After confirming that the waveforms of the electrocardiogram and heart rate were within the normal range, an incision was made in the epidermis of the neck followed by inserting a breathing tube into the trachea and cannulating a polyethylene tube into the left external jugular vein and left common carotid artery.
Immediately after administering a compound of the present invention dissolved in a physiological saline solution into the right external jugular vein, ouabain was continuously infused at 3 μg/0.1 ml/min through the cannulated polyethylene tube into the left external jugular vein using a syringe pump (Atom Syringe Pump 1235 (trade name), Atom Medical Corporation).
In addition, the polyethylene tube cannulated in the left common carotid artery was connected to a pressure transducer (P23XL, Gould Electronics), and fed to a pressure processor signal conditioner (TA-11, Gould Electronics) to record blood pressure and heart rate on a thermal plate recorder.
The results were assessed by comparing the dose (μg/kg) of ouabain administered until the appearance of arrhythmia and occurrence of cardiac arrest (arrhythmia is not induced even if a large dose of ouabain is administered if antiarrhythmic effects are high). Furthermore, a solvent dose group (administered only physiological saline in an amount equal to that of the test drug groups), and a positive control group administered a typical antiarrhythmic disopyramide phosphate (physiological saline solution), were also provided.

[3] = system: model of myocardial ischemia reperfusion injury; test: Model of myocardial ischemia-reperfusion injury in dogs; format: in vivo; conditions: 3 mg/kg into the femoral vein 10 minutes before 20 minutes coronary occlusion, then reperfusion
Procedure: In order to confirm the efficacy of compounds of the present invention on myocardial infarction and arrhythmia caused by myocardial infarction, a pharmacological study was conducted using a model of myocardial ischemia reperfusion injury in dogs for the compounds used in Example 1.
Dogs having body weights of approximately 10 kg were anesthetized with pentobarbital (trade name) (30 mg/ml/kg) followed by shaving the surgical site after starting artificial respiration. The femoral vein and femoral artery were separated followed by cannulation. The femoral vein was used as the administration route for the test substances, while the femoral artery was used to measure blood pressure.
Next, after opening the left chest, making an incision in the pericardium and exposing the left ventricle, the left coronary artery was separated. A silk suture was passed through the coronary artery to occlude, followed by the attachment of an electromagnetic flow meter probe for measuring blood flow.
In addition, a pair of ultrasound crystal probes was fixed in position to measure changes in ventricular wall length as a indicator of myocardial contractile force, and indwelling needle was installed for measuring left intraventricular pressure. Compounds of the present invention were administered into the femoral vein at 3 mg/kg (15% physiological saline solution) followed 10 minutes later by occluding the coronary artery for 20 minutes, and subsequently reperfusing the coronary artery. Myocardial contraction following ischemia-reperfusion was compared for each group based on a value of 100 for myocardial contraction prior to ischemic reperfusion. In addition, comparisons were also made with a solvent control group administered only physiological saline.

[4] = system: model of myocardial ischemia-reperfusion injury; test: Model of myocardial ischemia-reperfusion injury in rats; format: in vivo; conditions: 3 mg/kg i.v. 5 minutes before 5 minutes coronary ligation, 8 rats per group; for Incidence of Ventricular Fibrillation (%) / Incidence of Ventricular Tachycardia (%): monitored 5 minutes after reperfusion; for Mortality Rate (%): then reperfusion
guinea pigs = conditions: guinea pig, in vivo

SMILES	Improvement of neurological symptoms* (total score) [1]	Improvement of motor function (time stayed on rotor rod: seconds) [1] [s]	Cerebral infarction reduction rate (%) [1] [%]	Ouabain (μg/kg) administered until Cardiac arrest [2] [µg/kg]	Ouabain (μg/kg) administered until appearance of Arrhythmia [2] [µg/kg]	Myocardial Contraction (%) (Based on a value of 100% for prior to ischemia-reperfusion) [3]	Incidence of Ventricular Fibrillation (%) [4] [%]	Incidence of Ventricular Tachycardia (%) [4] [%]	Mortality Rate (%) [4] [%]	Occurrence of Arrhythmia (guinea pigs; 3 mg/kg)	Occurrence of cardiac arrest (guinea pigs; 3 mg/kg)	Occurrence of Arrhythmia (guinea pigs; 10 mg/kg)	Occurrence of cardiac arrest (guinea pigs; 10 mg/kg)
C[N+](C)(C)CCOc1ccc(O)c(C(=O)[O-])c1 [Compound 9]	5.95	51.6	51.5	245	170	78	25.0	75.0	12.5	No	No	No	No
C[N+](C)(C)CCOc1cc(O)cc(C(=O)[O-])c1O [Compound 28]	5.85	53.1	54.7	267	173	76	12.5	62.5	12.5	No	No	No	No
C[N+](C)(C)CCOc1cc(C(=O)[O-])c(O)cc1O [Compound 30]	6.50	51.4	42.9	247	173	77	12.5	62.5	12.5	No	No	No	No
C[N+](C)(C)CCOc1cc(C(=O)[O-])cc(O)c1O [Compound 31]	5.25	60.0	65.3	259	179	89	0	37.5	0	No	No	No	No
C[N+](C)(C)CCOc1ccc(C(=O)[O-])c(O)c1O [Compound 32]	5.65	53.5	55.4	243	176	79	12.5	50.0	12.5	No	No	No	No
CC1=NN(c2ccccc2)C(=O)C1 [Edaravone, reference compound]	6.10	42.6	37.3										
CCN(CC)CC(=O)Nc1c(C)cccc1C [Lidocaine, lidocaine, reference compound]							12.5	62.5	12.5				
